This note sets out measurements from US20120270237A9, “METHODS FOR THE IDENTIFICATION OF KINASE INTERACTING MOLECULES AND FOR THE PURIFICATION OF KINASE PROTEINS” (Cellzone AG, priority 2009, published 2012).

The target in experiment [1] is BCR (Homo sapiens, UniProt P11274). As to the kind of experiment: Kinobeads competition binding, L-363 cell lysate. The arrangement: capturing and identification of kinases from L-363 cell lysate; endogenous in cells; host or cells: L-363 (DSMZ ACC49), treated with MG132 before harvest. The following applies: 10 μM free compound, L-363 lysate. As for the experimental part: (§1) To one aliquot of cell lysate 10 μM of the free compound (FIG. 3, CZC31326) was added and allowed to bind to proteins in the lysate. Then the affinity matrix with the immobilized compound was added to capture proteins that were not interacting with the previously added free compound. Beads were separated from the lysate and bead bound proteins were eluted in SDS sample buffer and subsequently separated by SDS-Polyacrylamide gel electrophoresis (FIG. 8). Suitable gel bands were cut out and subjected to in-gel proteolytic digestion with trypsin. The second lysate aliquot was processed identically, however no free compound was added (DMSO solvent control). Peptides originating from samples 1 and 2 were labeled with iTRAQ reagents (iTRAQ 114 and iTRAQ 117) and the combined samples were analyzed with a nano-flow liquid chromatography system coupled online to a tandem mass spectrometer (LC-MS/MS) experiment followed by iTRAQ reporter ion quantification in the MS/MS spectra as described in Example 2.
(§2) For this experiment the human plasma cell leukaemia line L-363 was used (German Collection of Microorganisms and Cell Cultures, DSMZ number ACC49, Braunschweig, Germany). Cells were treated for three hours with 20 μM of the proteasome inhibitor MG132 (Z-Leu-Leu-Leu-al, Sigma C2211) prior to cell harvesting.

Experiment [2] concerns the target LYN (Homo sapiens, UniProt P07948). As to the kind of experiment: Kinobeads competition binding, L-363 cell lysate. The arrangement: capturing and identification of kinases from L-363 cell lysate; endogenous in cells; host or cells: L-363 (DSMZ ACC49), treated with MG132 before harvest. The settings on record: 10 μM free compound, L-363 lysate. As for the experimental part: as §1, §2

For experiment [3], the target named is MAP2K6 (Homo sapiens, UniProt P52564). The experiment is described as follows: Kinobeads competition binding, L-363 cell lysate. The arrangement: capturing and identification of kinases from L-363 cell lysate; endogenous in cells; host or cells: L-363 (DSMZ ACC49), treated with MG132 before harvest. The following applies: 10 μM free compound, L-363 lysate. As for the experimental part:
as §1, §2

Experiment [4] addresses RIPK2 (Homo sapiens, UniProt O43353). The experiment is described as follows: Kinobeads competition binding, L-363 cell lysate. The arrangement: capturing and identification of kinases from L-363 cell lysate; endogenous in cells; host or cells: L-363 (DSMZ ACC49), treated with MG132 before harvest. The following applies: 10 μM free compound, L-363 lysate. As for the experimental part:
as §1, §2

Experiment [5] concerns the target ALK2 (Homo sapiens, UniProt Q04771). As to the kind of experiment: Kinobeads competition binding, HeLa Placenta lysate mix. The settings on record: 10 μM free compound. The arrangement: capturing and identification of kinases from mixed HeLa placenta lysates; endogenous in cells; host or cells: mix of HeLa cell lysate and placenta tissue lysate. As for the experimental part: as §1, with “10).” for “8).”

The target of experiment [6] is ARG (Homo sapiens, UniProt P42684). Described as above. The arrangement: capturing and identification of kinases from mixed HeLa placenta lysates; endogenous in cells; host or cells: mix of HeLa cell lysate and placenta tissue lysate. The settings on record: 10 μM free compound. As for the experimental part:
as §1, with “10).” for “8).”

The target in experiment [7] is CDK2 (Homo sapiens, UniProt P24941). The description is as above. The arrangement: capturing and identification of kinases from mixed HeLa placenta lysates; endogenous in cells; host or cells: mix of HeLa cell lysate and placenta tissue lysate. The following applies: 10 μM free compound. On the procedure: as §1, with “10).” for “8).”
Experiment [8] addresses CDK9 (Homo sapiens, UniProt P50750). The description is as above. The settings on record: 10 μM free compound. The arrangement: capturing and identification of kinases from mixed HeLa placenta lysates; endogenous in cells; host or cells: mix of HeLa cell lysate and placenta tissue lysate. As for the experimental part: as §1, with “10).” for “8).”
Experiment [9] deals with CK2a2 (Homo sapiens, UniProt P19784). The experiment is described as above. The arrangement: capturing and identification of kinases from mixed HeLa placenta lysates; endogenous in cells; host or cells: mix of HeLa cell lysate and placenta tissue lysate. The following applies: 10 μM free compound. As for the experimental part: as §1, with “10).” for “8).”
Experiment [10] addresses MST2 (Homo sapiens, UniProt Q13188). The description is as above. The arrangement: capturing and identification of kinases from mixed HeLa placenta lysates; endogenous in cells; host or cells: mix of HeLa cell lysate and placenta tissue lysate. The following applies: 10 μM free compound. On the procedure: as §1, with “10).” for “8).”

As usually defined, the inhibition is the percentage by which the read-out fell short of the control. A low value points to little suppression. Regarding `CS(=O)(=O)Nc1ccccc1Nc1nc(Nc2cccc(OCCN)c2)ncc1Cl` [CZC31326, N-(2-(2-(3-(2-aminoethoxy)phenylamino)-5-chloropyrimidin-4-ylamino)phenyl)methanesulfonamide], the inhibition at 10 µM in experiment [1] was 93.6%; in experiment [2] it was 94.5%; in [3] it was 94.2%; in experiment [4], 95.5%; in experiment [5], 94.3%; in experiment [6], 91.2%. In addition, the inhibition at 10 µM worked out at 95.3% in experiment [8], 95.4% in [9] and 93.9% in experiment [10]. The Competition % in experiment [7] was determined as 93%.
